Laboratory results published in EP0579202A1, “Sulfhydryl-complexing agents in clinical test elements” (Johnson & Johnson Clinical Diagnostics, Inc., priority 1992, dated 1994).

Tests used:
[1] = Salicylate element with and without silver nitrate (Example 3)
Method: Standard elements (without blocking reagent) were spotted with solutions containing human serum spiked with salicylate in concentrations between 0 and 60 mg/dL. After a 5 minute incubation at 37°C the reflectance density was measured at 540 nm. Predicted salicylate concentration can be determined by fitting a response curve through the reflectance densities produced.

[2] = Dry salicylate element with blocking agent in the spreading layer (Example 1); conditions: for Salicylate Prediction of Fluid Fluid B: serum with 40 mg/dL salicylate and 100 mg/dL NAC; for Salicylate Prediction of Fluid Fluid B / Salicylate Prediction of Fluid Fluid C / Salicylate Prediction of Fluid Fluid A: agent in spreading layer at given g/m²; for Salicylate Prediction of Fluid Fluid C / Salicylate Prediction of Fluid Fluid A: serum with 40 mg/dL salicylate; for Salicylate Prediction of Fluid Fluid C: one hour exposure to stopper containing 2-benzothiazolethiol; for Salicylate Prediction of Fluid Fluid A: 540 nm, 5 minute, 37°C; for reducing sulfhydryl interference: salicylate element
Method: In this example, a dry analytical element formulated for measuring salicylate was used. […] A series of serum samples containing known levels of salicylate were spotted on the various test elements. Absorbance was measured at 540 nm after a 5 minute incubation at 37°C. From this series, a relationship between element absorbance and salicylate level could be made.
Serum samples containing 40 mg/dL of salicylate (Fluid A) and either 100 mg/dL of NAC (Fluid B) or a one hour exposure to a stopper containing 2-benzothiazolethiol (Fluid C) were then spotted on the elements and their predicted salicylate levels determined.

[3] = Screening of sulfhydryl-blocking reagents for NAC interference in the standard SOX solution assay; format: biochemical; conditions: more NAC than N-ethyl maleimide
Method: (§1) A standard SOX reaction solution can be prepared containing in 1 mL; 100 mM TRIS-C1, pH 7.75, 200 mM sarcosine, 1.5 mM 4-AAP, 0.02% (by weight) phenol, and 5.9 Units peroxidase. All reagents are combined in the assay cuvette and incubated at 37°C for 10 minutes after which time 1 Unit/mL SOX is added to the solution to initiate reaction. Reactions are observed spectrophotometrically at 505 nm; millimolar extinction coefficient is 17.4.
A variety of materials were selected as examples of reagents that might complex with (bind) the sulfhydryl group of NAC and thus block interference. […] One group contains materials not effective under the conditions tested; a second group appeared to minimize NAC interference, but adversely affected the assay. For example, the solution became gel-like or color formation was impaired. It is possible that this group of materials would be effective if they were incorporated apart from the detection chemistry, for example, either attached to beads or polymers or in a separate layer in a multilayer slide format.
The third group contains materials that effectively eliminated NAC interference and had no effect on dye formation or enzyme rate. In each case, the blocking reagent alone (set d) had no effect on the detection system. When this group of blocking reagents and NAC were included in the reaction cuvette, SOX reaction rates improved markedly. […]

[4] = Effect of NAC on preformed indicator dye in the SOX reaction (bleaching); conditions: for Final absorbances: 505 nm
Method: as §1
When determining the effect of NAC on SOX activity, the standard test described above is carried out except that to allow the reaction to go to completion before NAC is added, only 0.1 mM sarcosine is added. Thus, we ensured that all color formation was complete (the sarcosine being depleted). Indicator dye formed in four cuvettes when SOX was added; absorbance endpoint was 1,800. NAC then was added to the cuvettes to the final concentration of 0, 1, 2.5 or 10 mM, and the changes in absorption monitored. Rapidly (less than 10 seconds) each cuvette containing MAC lost color, proportional to MAC concentration. Final absorbances were 1.880, 1.100, 0.600 and 0.150 for cuvette containing 0, 1, 2.5 or 10 mM NAC, respectively.

[5] = Placement of the blocking reagent in the dry salicylate element (Example 2); conditions: Serum w/ Salicylate w/ 100mg/dL N-acetyl cysteine; no blocking reagent
From the text: Placement of the blocking reagent in the proper layer of the dry element is essential for stability. In this example, we placed the blocking reagent (0.5 g/m² of maleimide) in the spreading layer of one element, a location that is relatively hydrophobic in nature, and in the reagent layer of another element. […]

horse radish peroxidase = biological target: T1, horse radish peroxidase (Armoracia rusticana, UniProt P00433); assay: Effect of NAC on peroxidase activity (o-dianisidine dye formation); format: biochemical; conditions: 1 mM NAC in reaction mixture; 37°C; 430 nm
T1 sequence (P00433 31-338): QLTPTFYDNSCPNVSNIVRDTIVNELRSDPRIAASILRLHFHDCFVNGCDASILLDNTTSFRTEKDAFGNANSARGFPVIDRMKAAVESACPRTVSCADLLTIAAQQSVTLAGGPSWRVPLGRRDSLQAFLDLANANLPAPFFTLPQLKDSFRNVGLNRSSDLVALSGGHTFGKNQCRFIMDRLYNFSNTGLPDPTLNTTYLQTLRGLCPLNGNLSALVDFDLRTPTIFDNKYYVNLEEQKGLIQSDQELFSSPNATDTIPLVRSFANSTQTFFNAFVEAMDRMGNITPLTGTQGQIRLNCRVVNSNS
Method: One mL reaction solution was prepared containing 100 mM TRIS-C1, pH 7.75, 0.88 mM H₂O₂, and 0.157 mM o-dianisidine. All reagents were combined in the assay cuvette and incubated at 37°C for 10 minutes after which time 0.59 Unit of horse radish peroxidase was added to the solution to initiate reaction. Reactions were monitored spectrophotometrically at 430 nm; millimolar extinction coefficient was 11.3.

[6] = Acetaminophen element with and without maleimide (Example 4); conditions: n-acetylcysteine at 100 mg/dL
Method: This example is similar to Example 3 except that the analyte is acetaminophen and the element used for testing is the one shown in Table VII below.
Human serum spiked with acetaminophen varying in concentration between 1 and 294 mg/dL were spotted on the standard element and the element of the invention. After incubating for 5 minutes at 37°C, reflectance density was measured at 670 nm. Predictions of acetaminophen concentration were obtained as was done for salicylate concentration in Example 3. Differences between the predicted values and the values actually obtained from the two elements (standard and the invention) are shown in Table VIII.

Question: Which results are given for Sc1nc2ccccc2s1 [2-benzothiazolethiol]?
Answer: bias, Standard element ([1]; Salicylate at 15 mg/dL, 1 hour contact w/ rubber stoppers containing 2-benzothiazolethiol): -12.9 mg/dL bias; bias, Standard element ([1]; Salicylate at 40 mg/dl, 1 hour contact w/ rubber stoppers containing 2-benzothiazolethiol): -31.5 mg/dL bias

Question: Which “Salicylate Prediction of Fluid Fluid B” value [2] does the source give for NC(=O)CI [Iodoacetamide] here?
Answer: 12 mg/dL

Question: And the “Salicylate Prediction of Fluid Fluid C” value [2]?
Answer: 42 mg/dL

Question: What about the “Salicylate Prediction of Fluid Fluid A” value [2] of the same compound?
Answer: 40 mg/dL

Question: Which enzyme rate [3] does the source give for CCN1C(=O)C=CC1=O [N-ethyl-maleimide] here?
Answer: no improvement in enzyme rate is observed

Question: With CC(=O)N[C@@H](CS)C(=O)O [NAC, N-acetyl cysteine] as the compound, how does the Final absorbances ([4]; 1 mM NAC added after colour formation complete) read?
Answer: 1.100

Question: And the Final absorbances ([4]; 2.5 mM NAC added after colour formation complete)?
Answer: 0.600

Question: What about the Final absorbances ([4]; 10 mM NAC added after colour formation complete) of the same compound?
Answer: 0.150

Question: And the “time in which cuvette lost color” value ([4]; cuvettes with 1, 2.5 or 10 mM NAC)?
Answer: less than 10 seconds

Question: What about the “bias, Standard element” value ([1]; Salicylate at 15 mg/dL, n-acetylcysteine at 102 mg/dL) of the same compound?
Answer: -11.32 mg/dL bias

Question: What about the “bias, Standard element” value ([1]; Salicylate at 40 mg/dl, n-acetylcysteine at 102 mg/dL) of the same compound?
Answer: -40 mg/dL bias

Question: And the “salicylate prediction, Standard Element” value [5]?
Answer: 0.0 mg/dL

Question: What about the “peroxidase activity, as monitored by dye formation” value (horse radish peroxidase) of the same compound?
Answer: significantly inhibited

Question: What about the “bias, Standard element” value ([6]; Acetaminophen at 1 mg/dL) of the same compound?
Answer: -1.0 mg/dL bias

Question: And the “bias, Standard element” value ([6]; Acetaminophen at 52 mg/dl)?
Answer: -52 mg/dL bias

Question: And the “bias, Standard element” value ([6]; Acetaminophen at 202 mg/dL)?
Answer: -200 mg/dL bias

Question: With Fe(NO)₃ as the compound, how does the “Salicylate Prediction of Fluid Fluid B” value [2] read?
Answer: 0.0 mg/dL

Question: And the “Salicylate Prediction of Fluid Fluid C” value [2]?
Answer: 17 mg/dL

Question: And the “Salicylate Prediction of Fluid Fluid A” value [2]?
Answer: 40 mg/dL

Question: For Gold Chloride, which reducing sulfhydryl interference [2] is on record?
Answer: work well

Question: What about the “Salicylate Prediction of Fluid Fluid B” value [2] of the same compound?
Answer: 40 mg/dL

Question: And the “Salicylate Prediction of Fluid Fluid C” value [2]?
Answer: 40 mg/dL

Question: What about the “Salicylate Prediction of Fluid Fluid A” value [2] of the same compound?
Answer: 40 mg/dL

Question: Which results are given for Silver Nitrate?
Answer: reducing sulfhydryl interference [2]: work well; Salicylate Prediction of Fluid Fluid B [2]: 40 mg/dL; Salicylate Prediction of Fluid Fluid C [2]: 40 mg/dL; Salicylate Prediction of Fluid Fluid A [2]: 40 mg/dL; bias, Std w/ AgNO3 ([1]; Salicylate at 15 mg/dL, 1 hour contact w/ rubber stoppers containing 2-benzothiazolethiol, 0.4 g/m² silver nitrate): 0.3 mg/dL bias; bias, Std w/ AgNO3 ([1]; Salicylate at 15 mg/dL, n-acetylcysteine at 102 mg/dL, 0.4 g/m² silver nitrate in spreading layer): -0.01 mg/dL bias; bias, Std w/ AgNO3 ([1]; Salicylate at 40 mg/dl, 1 hour contact w/ rubber stoppers containing 2-benzothiazolethiol, 0.4 g/m² silver nitrate): 0.3 mg/dL bias; bias, Std w/ AgNO3 ([1]; Salicylate at 40 mg/dl, n-acetylcysteine at 102 mg/dL, 0.4 g/m² silver nitrate): -1.2 mg/dL bias
